Data: patent publication US20100254940A1, “Compositions and Methods for Regulating an Immune Response in a Subject” (INNATE PHARMA, S.A., priority 2002, published 2010)

Experiments:
[1] = tested on: Vg9Vd2 cells; experiment: EC50 of BrHPP for triggering Vg9Vd2 cells; format: cell-based
Experimental: In vitro, we and others (Lang, 1995) have shown that the activation of Vg9Vd2 cells occurs within minutes after the addition of the molecule. Two mechanisms may prevent the molecule to be active in vivo i) the likely rapid renal clearance of such a small molecule and ii) a degradation process in vivo. […] Nevertheless, the concentration of the molecule, injected by intravenous route in relatively high amount, should be maintained beyond the 20 nM EC50 for a significant time, if no additional, blood cell or organ related degradation process occurs in vivo.

[2] = Vital parameters, haematology and serum clinical chemistry follow up in cynomolgus monkeys (non-GLP studies); format: in vivo, cynomolgus monkeys (M. fascicularis)
Experimental: Classical blood parameters follow-up (red blood cell, platelets total and differential white blood cells counts, haemoglobin, mean corpuscular haemoglobin, mean corpuscular haemoglobin concentration) were performed at the sites of monkey handling, just before and after each administration and twice weekly.
On all animals in group 2, 48 or 72 hours after each injection, 16 blood chemistry parameters were measured (sodium, potassium, chloride, calcium, inorganic phosphorus, glucose, urea, total cholesterol, total bilirubin, total protein, albumin, globulin, creatinin, alkaline phosphatase, aspartate aminotransferase and […] aminotransferase).
The animals were observed daily and during and after each injection for any change in vital and clinical parameters (general behaviour, skin, hair, respiratory system, central nervous system). Animals were regularly weighed, every 3 days (group 1) or weekly (group 2). Body temperature (on vigil animals of group 2) was measured before and at the end of each BrHPP/IL2 (or IL2 alone) infusion and once daily during the 5 days following administration. Heart rate and blood pressure were recorded for all animals in group 2, before and at the end of each administration.

[3] = tested on: Vγ9Vδ2 T cells; experiment: Phosphostim (BrHPP) i.v. pharmaco-dynamic GLP study in cynomolgus monkeys; format: in vivo
Experimental: The objective of this GLP study was to explore further the pharmaco-dynamic properties of Phosphostim (BrHPP, 200 mg; GMP batch) alone and in combination with IL-2 following several i.v. administrations to cynomolgus monkeys. In particular, this study was planned to evaluate: • A dose-effect relationship between Phosphostim injection and γδ T cell peripheral amplification; • The pharmaco-dynamic effect of a second, third and up to fifth administration of Phosphostim in male and female animals; • The functionality of in vivo induced γδ T cells, by dosing systemic cytokines after Phosphostim treatment; • The effect of treatment with IL-2 alone and to validate the selected dose of 0.6 million IU/day/animal.
Phosphostim was administered i.v., as slow infusions (50 ml in 30 minutes), at various dose levels to five groups of two animals (one male+one female). Males received two successive injections of BrHPP (Day 0 and Day 22) before sacrifice and females four injections (Days 0, 22, 52 and 84). Two females, selected upon their level of response to the 4th treatment, received a supplementary injection of BrHPP alone at Day 91, during γδ cell peripheral increase, for systemic cytokine dosages.
The administration schedule of the test product can be summarized as follows in Table 1:
The dose levels in Table 1 are can be converted to BrHPP pure (anionic) form equivalent by multiplying each dose by 0.6. Thus, the doses of 0.2, 4, 20, 50, 80, 120 and 160 mg/kg in Table 1 are equivalent respectively to 0.12, 2.4, 12, 30, 48, 72 and 96 mg/kg of anionic form BrHPP. • IL-2 was administered s.c. at the following frequency: from Day 0 to Day 6 and from Day 22 to Day 28 for all animals; from Day 52 to 58 and from Day 84 to Day 90 for all the females. IL-2 was administered as two separate s.c. injections approximately 8 hours apart of 0.3 million IU, corresponding to 0.6 million IU/day/animal.

[4] = tested on: γδ T cells; experiment: Supplementary pharmaco-dynamics studies, consecutive injections of BrHPP in male cynomolgus monkeys; format: in vivo
Experimental: We have thus performed other non-GLP pharmaco-dynamics studies in male cynomolgus monkeys in order to further document the features of in vivo γδ T cells response to consecutive injections of BrHPP, varying either the dose or the time-laps between injections.
In vivo amplification was assessed after 4 successive injections of 20 or 80 mg/kg Phosphostim®, 4 or 8 weeks apart.

[5] = Two week repeated dose toxicity study in rats, i.v. BrHPP; format: in vivo, Sprague-Dawley rats
Experimental: The objective of this GLP study was to evaluate the potential toxicity of BrHPP following daily i.v. administration in rats for two weeks. 116 Sprague-Dawley rats were allocated into four groups: one control group (Group 1) with 10 males and 10 females and three treatment groups (Groups 2 to 4) with 10 males and 10 females. Group 2, 3 and 4 were administered respectively 80, 150 and 300 mg/kg/day (respectively 48, 90 and 180 mg/kg in anionic form equivalent) of BrHPP. […] Satellite animals were allocated for toxico-kinetics purposes.
BrHPP was administered daily by slow intravenous injection (0.4 mL/min) as a solution in sterile water for injection and Ringer lactate at the dose levels of 80, 150 or 300 mg/kg/day. The control group received the vehicle (together with 1% sodium to reach an osmolarity similar to the high-dose group dosage forms) under the same experimental conditions. A constant dosage-volume of 5 mL/kg was used.
The animals were checked daily for mortality and clinical signs. Body weight and food consumption were recorded twice a week. Opthalmologic examination was performed before and at the end of the treatment period. Blood samples for determination of levels of BrHPP were taken from satellite animals on Day 1 and at the end of the treatment period. Vaginal lavage was performed in females during pre-treatment and at the end of the treatment period for monitoring of estrous cycle. Hematological, blood biochemical and urinalysis investigations were performed on all principal animals at the end of week 2. On completion of the study, all animals were killed and subjected to a macroscopic post mortem examination and specified organs were weighed and preserved. Microscopic examination was performed on selected tissues from animals of the control and the 300 mg/kg/day groups.

3-(bromomethyl)-3-butanol-1-yl-diphosphate [BrHPP]
EC50 [1]: 20 nM
clinical or blood chemical parameters ([2]; BrHPP alone or in association with IL2): No alteration of clinical or blood chemical parameters
rectal temperature ([2]; any animal treated): not significantly affected
toxicity as assessed by vital signs or rectal temperature ([2]; five daily injection of 0.2 mg/kg BrHPP alone): did not result in any toxicity
toxicity, fever ([2]; four daily injections 1, 4, 16, 32 mg/kg BrHPP alone): no toxicity nor fever was observed
lymphocytes ([2]; highest dose of BrHPP, at peak of Vg9Vd2 in the periphery): a lymphocytosis was observed
γδ cell number increase ([3]; 20 mg/kg (12 mg/kg anionic form) + IL-2): 20 fold
increase in circulating γδ cell count ([3]; at around 120 mg/kg (EC50) + IL-2): 100 fold
circulating Vγ9Vδ2 T cells vs before treatment ([3]; highest tested dose + IL-2): 200 fold
share of circulating Vγ9Vδ2 T cells in peripheral lymphocytes ([3]; highest tested dose + IL-2): represented the majority of peripheral lymphocytes
estimated EC50 value in vivo, anionic form BrHPP ([3]; i.v. + IL-2): ~72 mg/kg
estimated EC50 value of BrHPP in vivo ([3]; i.v. + IL-2): around 120 mg/kg
first slightly efficient tested dose ([3]; i.v. + IL-2, Day 7): 4 mg/kg
first slightly efficient tested dose, anionic form BrHPP ([3]; i.v. + IL-2, Day 7): 2.4 mg/kg
in vivo amplification of γδ cells ([4]; 4 successive injections of 20 or 80 mg/kg Phosphostim, 4 or 8 weeks apart): repeated increases of γδ cells
γδ cell rate and absolute count in the periphery ([4]; at least 3 successive injections, 8 weeks apart, 20 or 80 mg/kg, males): significant increases
γδ cell rate and absolute count ([4]; at least 4 successive injections, 4 weeks apart, 20 mg/kg, males): detectable increases
microscopic examination, other organs and tissues ([5]; 300 mg/kg/day): No relevant findings were seen in other organs and tissues
opthalmologic findings ([5]; 300 mg/kg/day, end of treatment): No relevant opthalmologic findings
mortality ([5]; 80, 150, 300 mg/kg/day i.v. two weeks): No unscheduled death occurred
clinical signs during dosing ([5]; 150 and 300 mg/kg/day): Vocalization during dosing was noted on many occasions
microscopic examination, tail vein ([5]; both control and BrHPP-treated, attributed to mechanical injury): slight changes were observed in the tail vein
macroscopic post-mortem examination ([5]; end of treatment): No relevant findings were noted
organ weights ([5]; end of treatment): No relevant differences in organ weights from controls
hematological, biochemical or urinary parameter ([5]; end of week 2): No changes of toxicological significance
mean body weight gain ([5]; females): Dose-related higher mean body weight gain
NOAEL in anionic form equivalent ([5]; highest tested dose): 180 mg/kg
No Observed Adverse Effect Level (NOAEL) ([5]; highest tested dose): 300 mg/kg/day
